From PubChem BioAssay (NCI)
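Dose response: 5 concentrations. Exposure: 48 h. Format: 96-well plates. Endpoint: linear interpolation; highest concentration if not reached. GI50 marks 50% less growth. Definition used: TGI = concentration required for complete inhibition of growth.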

What was measured:
Experiment in all cases: growth of human tumour cells (NCI), 48 h
[1] = test system: RPMI-8226 leukemia
[2] = test system: SR leukemia
[3] = test system: M14 melanoma
[4] = test system: UACC-257 melanoma
[5] = test system: SF-295 CNS
[6] = test system: NCI-H23 lung
[7] = test system: RXF 393 renal
[8] = test system: SK-OV-3 ovarian
[9] = test system: OVCAR-5 ovarian
[10] = test system: T-47D breast
[11] = test system: 786-0 renal
[12] = test system: SK-MEL-2 melanoma
[13] = test system: HOP-62 NSCLC
[14] = test system: MOLT-4 leukemia
[15] = test system: BT-549 breast
[16] = test system: MALME-3M melanoma
[17] = test system: OVCAR-4 ovarian
[18] = test system: SK-MEL-28 melanoma
[19] = test system: UO-31 renal
[20] = test system: TK-10 renal
[21] = test system: IGROV1 ovarian
[22] = test system: MDA-MB-231 breast
[23] = test system: SW-620 colon
[24] = test system: SF-268 CNS
[25] = test system: CAKI-1 renal
[26] = test system: K-562 leukemia
[27] = test system: NCI-H226 lung
[28] = test system: NCI-H522 lung
[29] = test system: SNB-19 CNS
[30] = test system: MCF7 breast
[31] = test system: COLO 205 colon
[32] = test system: PC-3 prostate
[33] = test system: SK-MEL-5 melanoma
[34] = test system: HCT-116 colon
[35] = test system: UACC-62 melanoma
[36] = test system: DU-145 prostate
[37] = test system: U251 CNS
[38] = test system: HL-60(TB) leukemia
[39] = test system: KM12 colon
[40] = test system: HCT-15 colon
[41] = test system: MDA-MB-435
[42] = test system: HOP-92 NSCLC
[43] = test system: OVCAR-8 ovarian
[44] = test system: NCI-H460 lung
[45] = test system: A549 NSCLC
[46] = test system: LOX IMVI melanoma
[47] = test system: NCI/ADR-RES ovarian
[48] = test system: SN12C renal
[49] = test system: CCRF-CEM leukemia
[50] = test system: HCC-2998 colon
[51] = test system: EKVX NSCLC
[52] = test system: ACHN renal
[53] = test system: SNB-75 CNS
[54] = test system: HT29 colon
[55] = test system: HS 578T breast
[56] = test system: SF-539 CNS
[57] = test system: A498 renal

Work on CCN(CC)CCCC(C)NCC(=O)NC(c1ccc2c(c1)OCO2)c1cc(Cl)c2cccnc2c1O (centres undefined) yielded a GI50 [1] of 2.36 µM, a TGI [1] of 7.77 µM and a GI50 [2] of 0.897 µM. For the same compound, the TGI [2] was 5.61 µM, the GI50 [3] was 1.42 µM and the TGI [3] was 3.27 µM. The GI50 [4] was 1.92 µM, the TGI [4] was 4.18 µM and the GI50 [5] was 1.56 µM. It also gave a TGI [5] of 3.41 µM, a GI50 [6] of 2.99 µM and a TGI [6] of 11.2 µM. It also gave a GI50 [7] of 2.33 µM, a TGI [7] of 10.3 µM and a GI50 [8] of 2.93 µM. The TGI [8] was 8.45 µM, the GI50 [9] was 2.73 µM and the TGI [9] was 15.5 µM. For the same compound, the GI50 [10] was 2.89 µM, the TGI [10] was 9.19 µM and the GI50 [11] was 2.3 µM. It also gave a TGI [11] of 5.75 µM, a GI50 [12] of 2.37 µM and a TGI [12] of 6.33 µM. It also gave a GI50 [13] of 1.56 µM, a TGI [13] of 6.88 µM and a GI50 [14] of 0.626 µM. The TGI [14] was 11.2 µM, the GI50 [15] was 4.78 µM and the TGI [15] was 17.1 µM. For the same compound, the GI50 [16] was 1.68 µM, the TGI [16] was 3.29 µM and the GI50 [17] was 1.39 µM. The TGI [17] was 14.7 µM, the GI50 [18] was 1.47 µM and the TGI [18] was 3.08 µM. For the same compound, the GI50 [19] was 2.02 µM, the TGI [19] was 7.16 µM and the GI50 [20] was 3.36 µM. For the same compound, the TGI [20] was 15.1 µM, the GI50 [21] was 2.53 µM and the TGI [21] was 10.8 µM. For the same compound, the GI50 [22] was 1.35 µM, the TGI [22] was 11.9 µM and the GI50 [23] was 2.32 µM. For the same compound, the TGI [23] was 11.9 µM, the GI50 [24] was 2.21 µM and the TGI [24] was 10.6 µM. For the same compound, the GI50 [25] was 1.77 µM, the TGI [25] was 4.41 µM and the GI50 [26] was 0.895 µM. The TGI [26] was 9.33 µM, the GI50 [27] was 2.12 µM and the TGI [27] was 6.71 µM. For the same compound, the GI50 [28] was 2.36 µM, the TGI [28] was 6.97 µM and the GI50 [29] was 3.23 µM. It also gave a TGI [29] of 15.2 µM, a GI50 [30] of 1.59 µM and a TGI [30] of 10.6 µM. For the same compound, the GI50 [31] was 2.36 µM, the TGI [31] was 8.42 µM and the GI50 [32] was 2.03 µM. The TGI [32] was 12 µM, the GI50 [33] was 1.67 µM and the TGI [33] was 3.11 µM. For the same compound, the GI50 [34] was 1.41 µM, the TGI [34] was 11.2 µM and the GI50 [35] was 1.83 µM. The TGI [35] was 3.6 µM, the GI50 [36] was 2.63 µM and the TGI [36] was 15.7 µM. For the same compound, the GI50 [37] was 2.1 µM, the TGI [37] was 13 µM and the GI50 [38] was 1.29 µM. The TGI [38] was 4.41 µM, the GI50 [39] was 2.41 µM and the TGI [39] was 9.78 µM. It also gave a GI50 [40] of 2.44 µM, a TGI [40] of 11.9 µM and a GI50 [41] of 1.81 µM. The TGI [41] was 3.87 µM, the GI50 [42] was 1.62 µM and the TGI [42] was 8.17 µM. The GI50 [43] was 2.56 µM, the TGI [43] was 13.1 µM and the GI50 [44] was 1.48 µM. It also gave a TGI [44] of 6.45 µM, a GI50 [45] of 2.83 µM and a TGI [45] of 13.4 µM. The GI50 [46] was 1.22 µM, the TGI [46] was 3.13 µM and the GI50 [47] was 3.31 µM. The TGI [47] was 15.5 µM, the GI50 [48] was 3.15 µM and the TGI [48] was 13.7 µM. It also gave a GI50 [49] of 0.909 µM, a TGI [49] of 12.2 µM and a GI50 [50] of 1.73 µM. For the same compound, the TGI [50] was 4.13 µM, the GI50 [51] was 1.65 µM and the TGI [51] was 11 µM. It also gave a GI50 [52] of 2.79 µM, a TGI [52] of 10.1 µM and a GI50 [53] of 2.18 µM. The TGI [53] was 8.73 µM, the GI50 [54] was 2.41 µM and the TGI [54] was 10.4 µM. For the same compound, the GI50 [55] was 4.37 µM, the TGI [55] was 22.6 µM and the GI50 [56] was 1.85 µM. For the same compound, the TGI [56] was 4.05 µM, the GI50 [57] was 2.35 µM and the TGI [57] was 6.69 µM.
